Test results reported in patent publication US20260027179A1, “ANTI-SYNUCLEINOPATHY PEPTIDE AND METHODS TO TREAT NEURODEGENERATIVE DISEASES” (University of British Columbia, priority 2021, published 2026).

Columns and labels:
Iba-1 = experiment: PFF mouse model of spreading synucleinopathy, microglial Iba-1 immunostaining; format: in vivo; conditions: PFF-injected M83 mice, 40 mg/kg i.p. over 20 days, at three months, vs Tat-βsyn group
Protocol: M83 mice were injected intracerebrally (i.e.) into the right dorsal striatum with either 12.5 μg of α-synuclein pre-formed fibrils (PFFs) or PBS. Starting at 3 days prior to the PFF injection, mice were treated daily for 12 days with either Tat-βsyn or Tat-βsyn-degron peptide (40 mg/kg; i.p.) and once every other day for the subsequent 8 days (20 days in total, FIG. 5a). At the end of three months, coronal brain sections of the M83 mice were prepared and stained with antibodies against serine 129-phosphorylated α-synuclein (pS129syn), a marker of pathogenic synuclein aggregates, and Iba-1, a calcium-binding protein specifically expressed in macrophage and microglia as a marker of neuroinflammation.
PFFs were generated in-house based on the Volpicelli-Daley et al protocol. […] PFFs were characterized using a negative staining protocol and analyzed using an electron microscope. […] PFFs were visualized using a transmission electron microscope (FEI Tecnai 12 Bio Twin 120 kV TEM) coupled to a AMT XR80C CCD camera, and analyzed with ImageJ 1.5 and Matlab 2017b software. […]
Brains from M83 mice that received i.e. and i.p. injections were processed for immunohistochemistry. […] Coronal sections were analyzed using Fiji-ImageJ 1.5 software to detect the total area labeled with the peroxidase immunoreaction product. The results were analyzed using GraphPad Prism software.

C57BL/6 mice = experiment: MPTP mouse model, rotarod test; format: in vivo; conditions: peptide 6 μmol/kg i.p. twice a day for 12 days, vs MPTP group
Protocol: C57BL/6 mice (20-25 g) received intraperitoneal (i.p.) injection of 30 mg/kg parkinsonian toxin MPTP hydrochloride once a day for 5 days to induce dopaminergic neuron death in the substantia nigra, while the control mice received equal volumes of saline injection. 6 μmol/kg Tat-βsyn-degron peptide or control Tat-βsyn peptide was i.p. injected into the MPTP-treated mice every 12 hrs from the first day of MPTP injection until 7 days after the last injection of MPTP. All groups of mice then underwent a rotarod test before they were sacrificed.
The rotarod test was performed as previously described (Heldermon, C. D. et al., PloS one 2, e772, doi:10.1371/journal.pone.0000772 (2007)), with modifications. Briefly, 6 days after the last MPTP injection, all mice received 4 rounds of training on the rotarod (Stoelting Co.). In the first two rounds of training, the rotarod was maintained at constant speed of 20 rpm for 3 min. In the second two rounds of training, the rotarod reversed rotation direction every 3 turns at the constant speed of 20 rpm for 3 min. […] Mice were tested 10 times at 20 min intervals, and the time that they remained on the rotarod during each test was recorded. […] The motor performance of the mouse was expressed as the latency to fall off the rotarod.

For “YGRKKRRQRRRRTKSGVYLVGRRRG (The sequence is synthesized (YGRKKRRQRRRRTKSGVYLVGRRRG)) [Tat-βsyn-degron]”, the “Iba-1 staining in pons” value (Iba-1) was “significantly reduced the level of Iba-1 staining”, the “Iba-1 staining in substantia nigra pars compacta” value (Iba-1) was “no observable effect” and the “MPTP-induced motor deficits (latency to fall off the rotarod)” value (C57BL/6 mice) was “significantly reduced”.
